In patent US8933133B2, “Animal feeds containing polyols” (ADM Alliance Nutrition, Inc., priority 2006, dated 2015):

Tests used:
rumen fluid = test: In vitro fermentation of polyols in an artificial rumen environment using rumen fluid as inoculum; settings: for extent of fermentation: by 24 hours, judged from final gas volume and VFA; for extent of fermentation / fermentation rate: in words; for fermentation rate: in vitro rumen fermentation, gas production monitored every 30 minutes
Method: Fermentations were performed on two separate days where gas production was monitored every 30 minutes. In addition, pH, ammonia (NH3), and volatile fatty acid (“VFA”) production were measured after 24 hours. Duplicate samples of each compound were evaluated using in vitro rumen fermentations.
Duplicate samples of these compounds were fermented in vitro using rumen fluid as inoculum. Samples were weighed into 150 mL serum bottles (0.3 grams per bottle) using a CO2 atmosphere to provide an anaerobic environment. A standard buffered media was prepared (no additional feed matter was included in the fermentation), degassed, and added to the serum bottles (see, Goering, H. K., and P. J. Van Soest, “Forage Fiber Analyses (Apparatus, Reagents, Procedures, and Some Applications),” Agric. Handbook, No 379, ARS-USDA, Washington, D.C., 1970). Rumen fluid was obtained from a dairy cow, filtered, and added to the serum bottles as 20% of the total fluid addition (30 mL total fluid volume). The serum bottles were sealed, placed in an incubator, and the fermentation was allowed to proceed. Fermentations were performed on two separate days, during which time gas production was monitored every 30 minutes and pH, NH3, and VFA production measured after 24 hours.

[1] = test system: circulating non-esterified fatty acids (NEFA); test: Circulating non-esterified fatty acids in lambs fed a polyol supplement; assay type: in vivo; settings: lambs fed restricted diet (75% of maintenance energy requirements), supplement 25 to 45 grams/lamb, blood 1-24 hours after dose
Method: In this Example, the effect of a diet comprising an isolated or purified polyol on the level of circulating non-esterified fatty acids (“NEFA”) in lambs was examined.
Four lambs were used in this Example. The lambs were fed a basal diet the first week followed by at least 4 weeks during which the supplement treatments were evaluated. The lambs were fed a diet supplement comprising sorbitan during the second and third weeks of the treatment. The lambs were fed a diet supplement comprising polyglycerol during the fourth and fifth weeks of the treatment. The diet supplements were fed separate from the basal diet feed.

| extent of fermentation (rumen fluid) | Compound | rumen escape (rumen fluid; estimated from rate of in vitro fermentation / gas production, by weight escaping fermentation in the rumen) | fermentation rate (rumen fluid) | change in circulating NEFA levels [1] |
| --- | --- | --- | --- | --- |
| largely fermented by 24 hours | OCC(O)CO [Glycerol, glycerol] | – | – | – |
| – | OC[C@@H](O)[C@H]1OC[C@H](O)[C@H]1O [Sorbitan, 1,4-anhydro-D-sorbitol] | greater than 80% | slower than glucose, sorbitol, or glycerol | decrease in circulating NEFA levels |
| largely fermented by 24 hours | OC[C@@H](O)[C@@H](O)[C@H](O)[C@@H](O)CO [Sorbitol, sorbitol] | – | slower than glucose | – |
